# Reference: patent publication US7754701B2, “Difructose anhydride-containing composition and use thereof” (Fancl Corporation, priority 2002, dated 2010)
# Values joined by “and” are separate entries in the source; they are usually repeats but may differ in a detail not shown here. Equal values may be shown once.
# Columns and labels:
# [1] = system: small intestines (jejunum and ileum) and large intestines (cecum and colon) mucous membrane specimen; assay: Zinc absorption in Ussing chamber; set-up: species or system rat; settings: DFA III 0 to 100 mM, FIG. 2
# [2] = system: Streptococcus mutans MT 8148; assay: Acid production by Streptococcus mutans (Example 9), strain MT 8148; type: cell-based; settings: 10 ml of 5% solution added to 2 ml cell suspension, 37° C., FIG. 6
# Description: (§1) Dental caries causative bacteria (Streptococcus mutans) MT 8148 and 6715 strains provided by a microbial lineage storage laboratory of The Institute of Physical Chemical Research (Riken) were cultured on a brain heart infusion broth medium overnight and then cells were collected by centrifugation. The cells were washed twice with a phosphate buffered (5 mM) physiological saline solution (pH 7.0) and then suspended in the same saline solution. Ten milliliters each of 5% DFA III, sorbitol, palatinose, xylitol, and sucrose solutions were added to 2 ml of this concentrated cell suspension. Immediately, reaction was carried out at 37° C. and then change with time in pH of each reaction mixture was measured.
# [3] = Diuretic test using DFA III; type: in vivo, human
# Text: DFA III was made into granules to make a granular food product. Since granulation was possible without excipient, the DFA content was 100%. Six healthy males were given with 1 g/day of this granular food product together with water consecutively for 1 week in the first period of the test. Then, after a week of the washout period, the same 6 healthy subjects were given with 1 g/day of sugar together with water consecutively for 1 week in the second period of the test.
# During the test periods, all subjects lived under the same environment, doing the same level of exercise and taking the same amount of diet and drinking water. The whole volume of urine excreted during the test periods was recovered and the volume was measured to obtain a daily average urine volume to compare the two test periods.
# [4] = system: serum osteocalcin; assay: Bone formation in human: serum osteocalcin, DFA III alone (Example 6); type: in vivo; settings: 3 g DFA III 3 times a day for 2 weeks
# Description: Twenty-three healthy adult males and females on normal diet were administered with 3 g of DFA III 3 times a day for 2 weeks to study the change in serum osteocalcin concentration.
# [5] = system: small intestines (jejunum and ileum) and large intestines (cecum and colon) mucous membrane specimen; assay: Copper absorption in Ussing chamber; set-up: species or system rat; settings: DFA III 0 to 100 mM, FIG. 3
# [6] = system: serum osteocalcin; assay: Bone formation in human: serum osteocalcin, DFA III with calcium lactate (Example 4); type: in vivo; settings: 3 g DFA III and 0.77 g calcium lactate 3 times a day for 1 week vs calcium lactate alone; six healthy adult males; FIG. 4
# Description: Six healthy adult males were administered with 3 g of DFA III and 0.77 g of calcium lactate or 0.77 g of placebo (calcium lactate) 3 times a day for 1 week to study the change in serum osteocalcin concentration.
# [7] = Effectiveness on defecation in human; type: in vivo; settings: 3 g once a day for one month; for Feeling of defecation: Much better (number of subjects) / Feeling of defecation: No change (number of subjects) / Feeling of defecation: Slightly better (number of subjects) / Feeling of defecation: Slightly worse (number of subjects) / Feeling of defecation: Worse (number of subjects) / Stool properties, change observed: Constipation (worse after ingestion; number of subjects) / Stool properties, change observed: Normal stool (number of subjects) / Stool properties, change observed: Soft stool (number of subjects) / Stool properties, change observed: Solid stool (number of subjects) / Stool properties: No change (number of subjects): fifty adults; for Stool properties, change observed: Diarrhea (number of subjects): fifty adults with tendency of constipation
# Description: Fifty adults who were healthy but aware of their poor stool frequency and tendency of constipation were given with 3 g of DFA III, 3 g of melibiose or 3 g of placebo (starch) once a day for one month. The defecation condition was recorded and stool properties and feeling of defecation were studied.
# [8] = system: serum osteocalcin; assay: Bone formation in human: serum osteocalcin, DFA III with calcium carbonate (Example 5); type: in vivo; settings: 1 g DFA III and 0.25 g calcium carbonate 3 times a day for 2 weeks vs calcium carbonate alone; fourteen healthy adult males; FIG. 5
# Description: Fourteen healthy adult males were administered with 1 g of DFA III and 0.25 g of calcium carbonate or 0.25 g of placebo (calcium carbonate) 3 times a day for 2 weeks to study the change in serum osteocalcin concentration.
# [9] = system: small intestines (jejunum and ileum) and large intestines (cecum and colon) mucous membrane specimen; assay: Magnesium absorption in Ussing chamber; set-up: species or system rat; settings: DFA III 0, 1, 10, 100 mM on mucous membrane side, 37° C., 30 minutes, FIG. 1
# Description: Acceleration of magnesium absorption by DFA III was confirmed by using an Ussing chamber as follows.
# In this experiment, 7 to 8 weeks old Sprague-Dawley male rats (with an average body weight of about 260 g) were used.
# The rats were purchased at 6 weeks of age (Japan SLC) and fed on a commercial solid feed (CE-2, Japan CLEA) until the start of the experiment.
# On the day of the experiment, rats were injected intraperitoneally with sodium pentobarbital and the small intestines (cejunum and ileum) and the large intestines (cecum and colon) were extracted under the anaesthetization. Contents of each of the intestines were removed, the intestines were opened, and the serous membrane and the layer of smooth muscle were peeled off to prepare a specimen comprising the mucous membrane and submucosal tissue, which was then loaded onto an Ussing chamber (with an effective area of 0.67 cm^2).
# Separately, a buffer solution for the mucous membrane side and a buffer solution for serous membrane side were prepared. The buffer solution for mucous membrane side was basically comprised of the following ingredients. […]
# After the incubation was completed, the solution of serous membrane side was recovered and the Mg concentration in the solution was measured using a commercial kit (Wako Pure Chemicals). […]
# [10] = system: Streptococcus mutans MT 8148; assay: Acid production by Streptococcus mutans, DFA and palatinose (Example 10), strain MT 8148; type: cell-based; settings: 10 ml of 1% solution added to 2 ml cell suspension, 37° C., FIG. 7
# Description: as §1, with “a 1% palatinose solution, 1%” for “5%”, “a 1% palatinose solution with 1% DFA III added” for “sorbitol, palatinose, xylitol, and sucrose solutions”
# [11] = system: mice; assay: Acute toxicity test in mice; type: in vivo; settings: 10 days, 1000 mg/kg of oral administration
# Text: Further, DFA, an effective component of the invention, has no problem in its safety.
compound,measurement,setting,value
"OC[C@H]1O[C@@]2(CO[C@]3(CO)O[C@H](CO)[C@@H](O)[C@@H]3O2)[C@@H](O)[C@@H]1O [DFA III, difructose anhydride III]","Zn absorption (net rate, mucous to serous membrane side)",[1],evidently increased
same,acid production (change with time in pH of reaction mixture),[2],almost no acid
same,Average daily urine volume,"[3]; 1 g/day DFA III granular food product with water for 1 week, individual subjects A-F, healthy males",2600 mL and 2950 mL and 2560 mL and 2850 mL and 3010 mL and 2050 mL
same,abnormal subjective findings,[3]; 1 g/day for 1 week,no abnormal subjective findings
same,"average daily urine volume, first vs second test period","[3]; all individual subjects, DFA III 1 g/day vs sugar 1 g/day",evidently greater
same,"biochemical blood tests (liver function, renal function, blood pressure, blood cell counts, total Chol, TG)",[3]; first test period (DFA III) vs second test period (sugar),the same
same,"level of osteocalcin, change by ingestion",[4]; no added calcium,increased
same,"Serum osteocalcin concentration, After ingestion","[4]; 23 healthy adults on normal diet, Average ± SD",5.7 ± 1.5 ng/mL
same,"Serum osteocalcin concentration, Before ingestion","[4]; 23 healthy adults on normal diet, Average ± SD, *p < 0.1",7.0 ± 2.0* ng/ml
same,"Cu absorption (net rate, mucous to serous membrane side)",[5],evidently increased
same,"level of osteocalcin (serum), change",[6],increased more
same,Feeling of defecation: Much better (number of subjects),[7],23
same,Feeling of defecation: No change (number of subjects),[7],0
same,Feeling of defecation: Slightly better (number of subjects),[7],27
same,Feeling of defecation: Slightly worse (number of subjects),[7],0
same,Feeling of defecation: Worse (number of subjects),[7],0
same,"Stool properties, change observed: Constipation (worse after ingestion; number of subjects)",[7],0
same,"Stool properties, change observed: Normal stool (number of subjects)",[7],39
same,"Stool properties, change observed: Soft stool (number of subjects)",[7],7
same,"Stool properties, change observed: Solid stool (number of subjects)",[7],3
same,Stool properties: No change (number of subjects),[7],0
same,"Stool properties, change observed: Diarrhea (number of subjects)",[7],0
same,"level of osteocalcin (serum), change",[8],increased more
same,"Mg absorption (net rate, mucous to serous membrane side)",[9],evidently increased
same,acid production (change with time in pH of reaction mixture),[10],almost no acid was produced
same,acute toxicity (death),[11],no death
OC[C@H]1O[C@H](OCC2O[C@@H](O)[C@H](O)[C@@H](O)[C@@H]2O)[C@H](O)[C@@H](O)[C@H]1O (stereo partly shown) [melibiose],Feeling of defecation: Much better (number of subjects),[7],22
same,Feeling of defecation: No change (number of subjects),[7],0
same,Feeling of defecation: Slightly better (number of subjects),[7],28
same,Feeling of defecation: Slightly worse (number of subjects),[7],0
same,Feeling of defecation: Worse (number of subjects),[7],0
same,"Stool properties, change observed: Constipation (worse after ingestion; number of subjects)",[7],0
same,"Stool properties, change observed: Normal stool (number of subjects)",[7],40
same,"Stool properties, change observed: Soft stool (number of subjects)",[7],8
same,"Stool properties, change observed: Solid stool (number of subjects)",[7],2
same,Stool properties: No change (number of subjects),[7],0
same,"Stool properties, change observed: Diarrhea (number of subjects)",[7],0
"OC[C@H]1O[C@H](OC[C@H]2OC(O)(CO)[C@@H](O)[C@@H]2O)[C@H](O)[C@@H](O)[C@@H]1O (stereo partly shown) [palatinose, reference compound]",acid production (change with time in pH of reaction mixture),[2],almost no acid
same,acid production (change with time in pH of reaction mixture),[10],acid was produced
OC[C@@H](O)[C@@H](O)[C@H](O)[C@@H](O)CO [sorbitol],acid production (change with time in pH of reaction mixture),[2],almost no acid
OC[C@H]1O[C@@](CO)(O[C@H]2O[C@H](CO)[C@@H](O)[C@H](O)[C@H]2O)[C@@H](O)[C@@H]1O [sucrose],acid production (change with time in pH of reaction mixture),[2],evidently lowered the pH
"OC[C@H]1O[C@@](CO)(O[C@H]2O[C@H](CO)[C@@H](O)[C@H](O)[C@H]2O)[C@@H](O)[C@@H]1O [sugar, reference compound]",Average daily urine volume,"[3]; 1 g/day sugar with water for 1 week after 1 week washout, same subjects A-F",1620 mL and 1760 mL and 1650 mL and 1250 mL and 1850 mL and 1520 mL
OC[C@@H](O)[C@H](O)[C@@H](O)CO [xylitol],acid production (change with time in pH of reaction mixture),[2],almost no acid
